This is an account of results in article PMC7465886, “4-(N-Alkyl- and -Acyl-amino)-1,2,4-triazole-3-thione Analogs as Metallo-β-Lactamase Inhibitors: Impact of 4-Linker on Potency and Spectrum of Inhibition” (Biomolecules, 2020).

Each structure is given as a SMILES string.

Test [1] has as its target T1, VIM-2 (Escherichia coli, UniProt Q5U7L7).
T1 construct: made in house; host or cells: E. coli BL21(DE3) derivative, pET-9a
As to the kind of experiment: MBL inhibition, reporter substrate method, VIM-2. The class given is biochemical. The settings on record: hydrazine and hydrazide series; read-out: Ki Value VIM-2. On the procedure: (§1) Compounds were prepared in DMSO at a final concentration of 50 mM prior to dilution in the assay buffer. The reaction rate was measured as the variation of absorbance observed upon substrate hydrolysis in a UV-Vis spectrophotometer or microplate reader at a wavelength of 300 nm (imipenem, meropenem), 260 nm (cefotaxime), or 482 nm (nitrocefin) and in the presence of a purified MBL enzyme (such as VIM-1, VIM-2, VIM-4, NDM-1, and IMP-1, at a final concentration ranging from 1 to 70 nM).
(§2) These enzymes were overproduced in derivatives of E. coli BL21(DE3) carrying a pET-9 a (IMP-1, VIM-1, VIM-2, and VIM-4) or pET-15 b (NDM-1) vector into which the metallo-β-lactamase-encoding open reading frame was cloned. Bacterial strains were grown in the auto-inducing medium, ZYP-5052, supplemented with 50 μg/mL kanamycin for 24 h at 37 °C [38]. IMP-1, VIM-1, VIM-2, and VIM-4 were purified by ion-exchange and gel filtration chromatography using an AKTA Purifier platform (GE Healthcare, Uppsala, Sweden) as previously described. NDM-1 (residues 37-270) was produced as an amino-terminal 6 xHis-tag fusion protein and was purified using affinity chromatography. After growth for 26 h at 25 °C, bacterial cells were harvested by centrifugation (10,000× g, 30 min, 4 °C), resuspended in 10 mM HEPES buffer (pH 7.5) containing 0.15 M NaCl (buffer A) in one-fifth of the original culture volume, and lysed by sonication. Cellular debris was removed by centrifugation (12,000× g, 40 min, 4 °C). The clarified sample was loaded on a HisTrap HP column (bed volume, 5 mL; GE Healthcare), followed by a wash step (25 mL) with buffer A containing 20 mM imidazole. Proteins were eluted using buffer A containing 350 mM imidazole. The resulting protein sample was desalted (HiPrep 26/10 Desalting column, GE Healthcare) using 20 mM triethanolamine (pH 7.2) supplemented with 50 μM ZnSO4 and concentrated using an Amicon Ultra-15 (MW cut-off, 10 kDa; Millipore, Burlington, MA, USA). The concentrated sample was loaded on a Superdex 75 prep grade column (XK16/100 column; bed volume, 140 mL; GE Healthcare) and the proteins eluted with buffer A containing 50 μM ZnSO4. The active fractions were pooled and stored at −20 °C. The purity of the protein preparations was estimated >95% by SDS-PAGE analysis. The authenticity of the enzyme preparations was confirmed by electron spray ionization mass spectrometry, as previously described.
(§3) The inhibition constants (Ki) were determined on the basis of a model of competitive inhibition by analyzing the dependence of the ratio v0/vi (v0, hydrolysis velocity in the absence of inhibitor; vi, hydrolysis velocity in the presence of inhibitor) as a function of [I] as already described. The slope of the plot of v0/vi vs. [I], which corresponds to Km^S/(Km^S + [S])Ki (where Km^S is the Km value of the reporter substrate and [S] its concentration in the reaction mixture) and allowed the calculation of the Ki value. Alternatively, a Dixon plot analysis was carried out by measuring the initial hydrolysis rates in the presence of variable concentrations of inhibitor and substrate. This allowed Ki values to be determined and supported the hypothesis that the various compounds behaved as competitive inhibitors of the various tested enzymes. The assays were performed in triplicate.

The subject of test [2] is E. coli LZ2310(pLBII-VIM-2). Briefly: microbe, parasite or virus in culture. It counts as cell-based, Escherichia coli. As for the experimental part:
The potential activity of selected compounds was assessed by the agar disk-diffusion method, according to the CLSI (Clinical Laboratory Standard Institute) recommendations, using Mueller–Hinton medium. The inhibitor (dissolved in DMSO) was added (maximum volume of 15 μL) to a commercially available disk containing a defined amount of a β-lactam antibiotic (30 μg of cefoxitin (Oxoid, Milan, Italy)). After incubation (18 h at 35 °C), the diameter of the growth inhibition zone was measured and compared to that obtained in the absence of inhibitor. DMSO and EDTA (220 μg) were used as negative and positive controls, respectively. Experiments were performed in triplicate.
These tests were performed on an isogenic laboratory strain obtained after transforming Escherichia coli LZ2310 strain with a derivative of the high copy number plasmid pLB-II carrying the cloned blaVIM-2 gene harboring a cloned gene encoding the functional metallo-β-lactamase. Strain LZ2310 is a triple knockout mutant derived from K12 in which the genes encoding for components of the three major efflux pump systems were inactivated (genotype, ∆norE ∆mdfA N43 acrA1) and was used to generate an hyperpermeable background for MBL production and investigate the potential contribution of such mechanisms to inhibitor efflux.

Test [3] concerns the target T2, VIM-4 (Pseudomonas aeruginosa, UniProt A0A0F7KYQ8, S205R).
T2 construct: made in house; host or cells: E. coli BL21(DE3) derivative, pET-9a
As to the kind of experiment: MBL inhibition, reporter substrate method, VIM-4. The class given is biochemical. The settings on record: read-out: Inhibition of VIM-4 (dash). As for the experimental part:
as §1, §2, §3

Test [4] addresses NDM-1 (Klebsiella pneumoniae, UniProt C7C422). As to the kind of experiment: MBL inhibition, reporter substrate method, NDM-1. The class given is biochemical. As for the experimental part: as §1, §2, §3
Test [5] has as its target T3, L1 (Stenotrophomonas maltophilia, UniProt P52700).
T3 construct: made in house
Briefly: MBL inhibition, L1 (nitrocefin hydrolysis). The class given is biochemical. To be noted: 100 μM inhibitor; read-out: Inhibition of L1 (dash). As for the experimental part: Compounds were prepared as 10 mM solutions in DMSO before dilution with appropriate buffers. Buffers were 25 mM Hepes pH 7.5 for CphA or 25 mM Hepes pH 7.5, 50 µM ZnCl2 for L1. The rates in the absence of inhibitor were not modified by addition of 1% DMSO. CphA and L1 enzymes, purified as previously described, were used at concentrations between 0.2 and 0.8 nM, respectively. The enzyme and the inhibitor (100 µM) were pre-incubated for 30 min in a volume of 495 µL at room temperature. The hydrolysis of a solution of 100 µM imipenem for CphA was monitored by following the absorbance variation at 300 nm using a Specord 50 PLUS spectrophotometer (Analytik Jena, Jena, Germany). For L1, the reporter substrate was nitrocefin (100 µM). The enzyme activity was measured by following the absorbance variation at 482 nm. The substrate hydrolysis was done at 30 °C. The activity was tested by measuring the initial rates in three samples without inhibitor that allowed to determine the percentage of residual β-lactamase activity in the presence of inhibitors. If the residual activity in the presence of 100 µM inhibitor was <30%, the initial rate conditions were used to study the inhibition in the presence of increasing concentrations of compounds (from 1 to 100 µM) and to determine the competitive inhibition constant Ki. The Hanes linearization of the Henri–Michaelis equation was used, and Ki was calculated on the basis of the following equation, v = (Vmax.S)/[S + Km(1 + I/Ki)]. The assays were performed in triplicates.

Setting [6] is: Escherichia coli, read-out: Inhibition Zone Diameter.

Chain of NDM-1 (C7C422 37-270 limits assumed): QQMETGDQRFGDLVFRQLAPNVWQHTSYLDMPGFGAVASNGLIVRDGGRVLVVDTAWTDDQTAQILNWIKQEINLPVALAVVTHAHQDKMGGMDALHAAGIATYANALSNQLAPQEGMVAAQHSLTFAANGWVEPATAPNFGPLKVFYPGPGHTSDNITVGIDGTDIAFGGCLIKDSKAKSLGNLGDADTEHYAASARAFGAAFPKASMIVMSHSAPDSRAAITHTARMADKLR
T3 sequence (P52700 34-290): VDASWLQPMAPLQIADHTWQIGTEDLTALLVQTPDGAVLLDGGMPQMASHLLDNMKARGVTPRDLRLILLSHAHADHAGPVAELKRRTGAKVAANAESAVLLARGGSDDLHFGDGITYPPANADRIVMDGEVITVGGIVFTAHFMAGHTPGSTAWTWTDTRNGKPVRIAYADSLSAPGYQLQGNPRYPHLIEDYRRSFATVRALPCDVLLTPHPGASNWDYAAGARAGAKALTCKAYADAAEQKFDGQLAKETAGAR

For orientation: Ki means the dissociation constant of the complex between target and ligand, obtained from inhibition or displacement. By inhibition is commonly meant the percentage by which the read-out fell short of the control. As to `O=C(O)c1ccccc1CNn1c(-c2ccccc2)n[nH]c1=S` [Compound 1], the inhibition constant Ki in test [1] was 1400 nM. The “Restoration of cefoxitin activity (in words)” value in test [2] (30 μg cefoxitin disk, compound 1 at 48 μg, EUCAST clinical breakpoints) is on record as “able to restore cefoxitin susceptibility”. For the same molecule, in test [2] (setting [6]), the zone of inhibition at 16 µg/disc is 13 mm, the zone of inhibition at 32 µg/disc turned out to be 16 mm and the zone of inhibition at 48 µg/disc was 20 mm. Moreover, the inhibition at 100 µM in test [3] is less than 30%. Moreover, in test [4], the “Inhibition of NDM-1 (in words)” value is “inactive”. Further, the inhibition at 100 µM in test [4] (read-out: Inhibition of NDM-1 (dash in Ki column)) was less than 40%. Moreover, the inhibition at 100 µM in test [5] was less than 30%.
